Tests used:
[1] = tested on: protein p140; experiment: Tyrosine phosphorylation of p140 in rat L6 cells (anti-phosphotyrosine recovery, western blot, densitometry); type: cell-based; details: for p140 tyrosine phosphorylation (band content of pp140): rat L6 cells, amylin 100 pM 24 hr before insulin where added
Description: (§1) Using the Dubecco's modified Eagle's medium (containing 10% BFS), various cells (1×10^5 cells/dish) were incubated at 37° C. under 5% CO2 atmosphere for 5˜8 days. The cells were skeletal muscle cells differentiated from skeletal muscle myoblasts. The differentiated cells previously treated in serum-free Dulbecco's modified Eagle's medium for 4 hr was incubated with and without amylin (100 pM) before further incubation for 24 hr. Cultures treated with insulin (100 nM) thereafter were incubated for a fixed interval (10 or 60 min). After the cultures were rinsed with ice-cold phosphate buffer, cells were lysed with phosphate buffer containing 0.5% octa (ethylene glycol) ether (C12E8). The pp140 was recovered by sepharobeads bound with phosphothyrosine antibody (Transformation Corp.) prior to elution and detection with phenyl phosphate and western blotting method, respectively. The band content of pp140 was determined by a densitometer using purified pp140 as the standard. In the Table 1, cultures were treated with amylin (100 pM) 24 hr before insulin (100 nM) was added.

[2] = tested on: healthy rats; experiment: Amylin administration to healthy rats for 7 days; type: in vivo, rat; details: amylin 0.1 mg/kg, i.p., t.i.d.
Description: (§2) These observations were accompanied by decreases in both incidences, glucose transporter 4 (Glut 4) quantity and synthesized glycogen content (less than 50% decrease compared to that of control group) with 1.7-fold increase in the blood glucose content.

[3] = tested on: protein p140; experiment: Tyrosine phosphorylation of p140 in human A673 muscle cells; type: cell-based; details: for p140 tyrosine phosphorylation (band content of pp140): human A 678 cells, amylin 100 pM 24 hr before insulin where added
Description: as §1

[4] = tested on: protein p140; experiment: Tyrosine phosphorylation of p140 in rat FaO hepatocytes; type: cell-based; details: for p140 tyrosine phosphorylation (band content of pp140): rat FaO cells, amylin 100 pM 24 hr before insulin where added
Description: as §1

[5] = tested on: L6 cells; experiment: Glucose uptake in L6 cells with amylin administration; type: cell-based; details: L6 cells of rat skeletal muscle myoblasts
Description: as §2

[6] = tested on: protein p140; experiment: Tyrosine phosphorylation of p140 in human HepG2 hepatocytes; type: cell-based; details: for p140 tyrosine phosphorylation (band content of pp140): human HepG2 cells, amylin 100 pM 24 hr before insulin where added
[7] = tested on: Rat L6 cells; experiment: Enhancement activity on glucose uptake (3H-2-deoxyglucose) in rat L6 cells; type: cell-based; details: 2 hr, 5 mM 3H-2-deoxyglucose, initial 3 min
Description: Rat L6 cells (1×10^5 cells/dish) were incubated in Dulbecco's modified Eagle's medium (containing 10% BFS) at 37° C. under 5% C02 atmosphere for 8 days. The cells used were skeletal muscle myoblast-differentiated skeletal muscle cells. After treating the differentiated skeletal muscle cells in serum-free Dulbecco's modified Eagle's medium for 2 hr, various test compounds (10 mM; except insulin,l mM) were added before the cultures were further incubated for a fixed interval of 2 hr. Cultures thereafter treated with Crebs-Ringer phosphate buffer (pH: 7.4) for 20 min were further incubated with 5 mM ^3H-2-deoxyglucose (0.05 mCi/ml). At the initial 3 min after incubation, the uptake radioactivity content in cells was determined with a liquid syntillation counter.

[8] = tested on: protein p140; experiment: Effects of various test compounds on p140 phosphorylation in rat L6 cells; type: cell-based; design: dose or concentration left out as unconfirmed
Description: Rat L6 cells (1×10^5 cells/dish) were incubated in the Dulbecco's modified Eagle's medium (containing 10% BFS) at 37° C. under 5% CO2 atmosphere for 8 days. The cells used were skeletal muscle myoblast-differentiated muscle cells. After treating the differentiated skeletal muscle cells in serum-free Dulbecco's modified Eagle's media for 4 hr, various test compounds (10 mM; except insulin,1 mM) were added before the cultures were further incubated for a fixed interval. After the cultures were rinsed with ice-cold phosphate buffer, cells were lysed with phosphate buffer containing 0.5% octa (ethylene glycol) ether (C12E8). The pp140 was recovered by cephalobeads bound with phosphotyrosine antibody (Transformation Corp.) prior to elution and detection with phenyl phosphate and western blotting method, respectively. The band content of pp140 was determined by a densitometer using purified pp140 as the standard.

[9] = tested on: streptozotocin (STZ)-induced diabetic rats; experiment: Effects of vitamin K5 on diabetes in streptozotocin (STZ) rats; type: in vivo, rat; details: vitamin K5 i.p. once daily for 3 consecutive days
Description: The diabetes model using streptozotocin (STZ) was established in male Wistar rats (STZ rats). After administering various intraperitoneal (i.p.) daily doses of vitamin K5 for 3 consecutive days in STZ rats (one administration per day), the glucose, neutral fat and cholesterol contents in blood were determined. Accordingly, STZ and normal rats were administered with the vehicle (physiological saline) at identical daily rate and duration prior to determination of similar hematic indices mentioned above. In addition, rats administered subcutaneously (s.c.) with insulin (8 U/kg) daily (one administration per day) for 3 consecutive days were used as positive controls.

| Compound | Activity on glucose uptake [7] | Amount of tyrosine phosphorylated p140 ([8]; 0 min) | Amount of tyrosine phosphorylated p140 ([8]; 3 min) | Amount of tyrosine phosphorylated p140 ([8]; 10 min) | Amount of tyrosine phosphorylated p140 ([8]; 60 min) | also measured |
| --- | --- | --- | --- | --- | --- | --- |
| amylin | – | – | – | – | – | Effect on insulin-induced incidence of pp140 ([1]; rat L6 cells incubated with insulin within 10 min): antagonized; glucose transporter 4 (Glut 4) quantity [2]: decreases; increase in the blood glucose content [2]: 1.7 fold; insulin receptor population [2]: dramatic decreases; secreted insulin quantity [2]: dramatic decreases; synthesized glycogen content, decrease compared to control group [2]: less than 50%; Effect on insulin-induced incidence of pp140 ([3]; human muscle cells (A673 cells)): similarly confirmed; Effect on insulin-induced incidence of pp140 ([4]; rat hepatocytes, FaO cells): similarly confirmed; glucose uptake in the cells [5]: decreased glucose uptake; Effect on insulin-induced incidence of pp140 ([6]; human hepatocytes (HepG2 cells)): similarly confirmed |
| O=C1NC(=S)SC1c1ccccc1 (stereo not shown) [5-phenylrhodanine] | 76.8 pmol/mg protein/min | 350 copy/cell | 1600 copy/cell | 1250 copy/cell | 650 copy/cell | – |
| Cc1cc(N)c2ccccc2c1O [Vitamin K5, 4-amino-2-methyl-1-naphthol] | 67.5 pmol/mg protein/min | 400 copy/cell | 3850 copy/cell | 2850 copy/cell | 1600 copy/cell | cholesterol content in blood [9]: elicited recovery of changes; glucose content in blood [9]: elicited recovery of changes; neutral fat content in blood [9]: elicited recovery of changes |
| Insulin | 106.8 pmol/mg protein/min | 350 copy/cell | 1850 copy/cell | 2600 copy/cell | 1650 copy/cell | p140 tyrosine phosphorylation (band content of pp140) ([1]; insulin 100 nM for 10 min): 2400; p140 tyrosine phosphorylation (band content of pp140) ([1]; insulin 100 nM for 60 min): 1000; p140 tyrosine phosphorylation (band content of pp140) ([3]; insulin 100 nM for 10 min): 2500; p140 tyrosine phosphorylation (band content of pp140) ([3]; insulin 100 nM for 60 min): 1900; p140 tyrosine phosphorylation (band content of pp140) ([4]; insulin 100 nM for 10 min): 2000; p140 tyrosine phosphorylation (band content of pp140) ([4]; insulin 100 nM for 60 min): 1400; p140 tyrosine phosphorylation (band content of pp140) ([6]; insulin 100 nM for 10 min): 2100; p140 tyrosine phosphorylation (band content of pp140) ([6]; insulin 100 nM for 60 min): 1200 |
| CC1=CC(=O)c2ccccc2C1=O [Vitamin K3, 2-methyl-1,4-naphthoquinone] | 60.9 pmol/mg protein/min | 350 copy/cell | 3650 copy/cell | 1800 copy/cell | 750 copy/cell | – |
| CC(C)CCOc1ccc(C=C2SC(=S)NC2=O)cc1 [5-(4-isoamyloxybenzylidene)rhodanine] | 98.4 pmol/mg protein/min | 400 copy/cell | 3200 copy/cell | 2250 copy/cell | 1600 copy/cell | – |
